Assay results as given in patent publication US20080194658A1, “Sterol Carrier Protein-2 Inhibitors for Lowering Cholesterol and Triglyceride Levels in Mammals” (priority 2006, published 2008).

Assays:
rats [1] = assay: Total serum cholesterol levels in rats; assay type: in vivo, rat; settings: oral, varying concentrations for 5 days, all treated animals (FIG. 2)
Experimental: (§1) Mammalian species (i.e., rats) were used. Rats were fed a standard diet (3.5% fat, <0.02% cholesterol). Weaned rats were grouped into treated and controls. Rats were chosen as the testing animal so that 0.5 ml of blood samples could be taken for testing. Rats were anesthetized first in an induction chamber with isoflurane and oxygen (100%). Once anesthetized rats were positioned dorsally for the blood draw from the jugular or ventral tail vein. An anesthetic nose-cone was placed on the nose of the rat allowing isoflurane and oxygen (100%) to be delivered through a Bain circuit. After obtaining blood, the rats were allowed to recover in a shoebox cage with a heat lamp positioned over the top of the cage. Once the rats were awake and moving freely around the recovery cage, they are placed back in their normal cages. Total time for procedure is ˜15-20 minutes per rat.
N-(4-{[4-(3,4-dichlorophenyl)-1,3-thiazol-2-yl]amino}phenyl)acetamide hydrobromide was mixed with DMSO (solvent) in increasing dosages, which were feed to laboratory rats. Rats received the preparations via oral drops. Daily observations were recorded concerning (i) weight changes and (ii) mortality. Blood samples were taken every three weeks for testing cholesterol levels and for testing Alanine Aminotransferase (ALT) for liver function. […]

[2] = Growth rate of young rats upon oral administration; assay type: in vivo; settings: young rats starting at 20 days of age, 5 days/week at various dosages (FIG. 1)
Experimental: FIG. 1 is a graph showing growth rates of young rats (starting at 20 days of age) upon oral administration of N-(4-{[4-(3,4-dichlorophenyl)-1,3-thiazol-2-yl]amino}phenyl)acetamide hydrobromide, whereby the effect on growth rate was insignificant, whereby the drug was administered 5 days/week at various dosages, whereby weight was measured every day during the treatment regimen (Monday-Friday), whereby the data is shown in three groups to compensate for variations in growth rate as the animals aged, whereby the listed days represent the number of days after the initial first administration, and whereby the bars represent the average growth rate±Standard deviation.
Mammalian species (i.e., rats) were used. Rats were fed a standard diet (3.5% fat, <0.02% cholesterol). Weaned rats were grouped into treated and controls. Rats were chosen as the testing animal so that 0.5 ml of blood samples could be taken for testing. Rats were anesthetized first in an induction chamber with isoflurane and oxygen (100%). Once anesthetized rats were positioned dorsally for the blood draw from the jugular or ventral tail vein. […]
N-(4-{[4-(3,4-dichlorophenyl)-1,3-thiazol-2-yl]amino}phenyl)acetamide hydrobromide was mixed with DMSO (solvent) in increasing dosages, which were feed to laboratory rats. […] Daily observations were recorded concerning (i) weight changes and (ii) mortality. […]

rats [3] = assay: Serum ALT levels in rats (liver function); assay type: in vivo; settings: oral, various dosages for 5 days (FIG. 3)
Experimental: as §1
N-(4-{[4-(3,4-dichlorophenyl)-1,3-thiazol-2-yl]amino}phenyl)acetamide hydrobromide was mixed with DMSO (solvent) in increasing dosages, which were feed to laboratory rats. Rats received the preparations via oral drops. Daily observations were recorded concerning (i) weight changes and (ii) mortality. […]
The vertebrate SCP-2 is involved in cholesterol metabolism, therefore, cholesterol homeostasis is advantageously monitored when SCP-2 inhibitors are tested in mammalian species. […]

Compound: Br.CC(=O)Nc1ccc(Nc2nc(-c3ccc(Cl)c(Cl)c3)cs2)cc1 [N-(4-{[4-(3,4-dichlorophenyl)-1,3-thiazol-2-yl]amino}phenyl)acetamide hydrobromide]
- total serum cholesterol levels (rats [1]): significant decrease
- effect on growth rate [2]: insignificant
- serum ALT levels, control (0 mg/kg) vs treated animals (rats [3]): no significant difference
